The values below come from patent US7265129B2, “Anti-infective biaryl compounds” (priority 2002, dated 2007).

The test system of assay [1] is B. cereus ATCC 11778. The assay is described as follows: MIC, NCCLS broth microdilution, B. cereus. Format: cell-based, Bacillus cereus. In a few lines:
(§1)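 Serial dilutions in broth, microplate format, per NCCLS M7-A4, M11-A4 and M27-T; MIC recorded. Fungal strain run by the Manual of Clinical Microbiology protocol.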
Background: Dilution methods test growth across graded concentrations, often in twofold steps.

Assay [2] deals with C. albicans ATCC 38247. The assay is described as follows: MIC, antifungal assay, C. albicans. Format: cell-based, Candida albicans. In a few lines: as §1
Assay [3] deals with E. faecalis ATCC 29212. The assay is described as follows: MIC, NCCLS broth microdilution, E. faecalis. The assay is classed as cell-based, Enterococcus faecalis. In outline: as §1
The subject of assay [4] is S. aureus ATCC 13709. The assay is described as follows: MIC, NCCLS broth microdilution, S. aureus MSSA. Format: cell-based, Staphylococcus aureus. The settings on record: S. aureus ATCC 13709, methicillin sensitive strain (MSSA). In outline:
as §1

For assay [5], the system named is S. aureus ATCC 27660. The assay is described as follows: MIC, NCCLS broth microdilution, S. aureus MRSA. The assay is classed as cell-based, Staphylococcus aureus. Conditions: S. aureus ATCC 27660, methicillin resistant strain (MRSA). In a few lines: as §1
The test system of assay [6] is S. aureus ATCC 33591. The assay is described as follows: MIC, NCCLS broth microdilution, S. aureus ATCC 33591. Format: cell-based, Staphylococcus aureus. In outline:
as §1

Assay [7] concerns S. pneumoniae ATCC 49619. The assay is described as follows: MIC, NCCLS broth microdilution, S. pneumoniae. Format: cell-based, Streptococcus pneumoniae. In outline: as §1
Assay [8] concerns E. faecium ATCC 51559. The assay is described as follows: MIC, E. faecium VRE. Conditions: Table C; E. faecium ATCC 51559, vancomycin resistant strain (VRE). Format: cell-based, Enterococcus faccium. The procedure:
(§2) Compounds according to this invention were screened for their in vitro activities against selected species of bacteria and fungi. The minimal inhibition concentration (MIC) of these compounds was determined using the National Committee for Clinical Laboratory Standards (NCCLS) broth microdilution assay in microtiter plates, as set forth in: (1) the guidelines of the National Committee for Clinical Laboratory Standards (NCCLS) Document M7-A4 (NCCLS, 1997); (2) the guidelines of the National Committee for Clinical Laboratory Standards (NCCLS) Document M11-A4 (NCCLS, 1997); and (3) the guidelines and reference method of the National Committee for Clinical Laboratory Standards (NCCLS) Document M27-T (NCCLS, 1995). For antifungal assays, the method recommended in Murray, P R., 1995 Manual of Clinical Microbiology (ASM Press, Washington, D.C.), was employed.
(§3) Additionally, some compounds were screened against Enterococcus faccium (ATCC 51559, a vancomycin resistant strain (VRE)), Staphylococcus epidermidis (ATCC 12228), Streptococcus pneumoniae (ATCC 51422, a penicillin resistant strain (PRSP)), and/or Streptococcus pyogenes (ATCC 49399).

Assay [9] deals with S. epidermidis ATCC 12228. The assay is described as follows: MIC, S. epidermidis. Format: cell-based, Staphylococcus epidermidis. Conditions: Table C. The protocol:
as §2, §3

Assay [10] in a line: MIC, Table C (organism not given). Format: cell-based. The procedure: as §2, §3

Molecules are shown by their SMILES. Bounds are passed on as bounds.

For the compound `Cn1cc(NC(=O)c2cc(NC(=O)c3sccc3Cl)cn2CCCN2CCCCC2)cc1-c1nc2ccccc2[nH]1` [Compound A-49], the “Minimum Inhibitory Concentration (MIC), organism A” value in assay [1] is reported as “+++ (MIC ≦ 4 μg/mL)”; in [8], “+++ (MIC ≦ 4 pg/mL)”. The “Minimum Inhibitory Concentration (MIC), organism B” value in [2] was “+ (12 ≦ MIC ≦ 32 μg/mL)”; in [9], “+++ (MIC ≦ 4 pg/mL)”. Moreover, the “Minimum Inhibitory Concentration (MIC), organism C” value in assay [3] is “+++ (MIC ≦ 4 μg/mL)”. The “Minimum Inhibitory Concentration (MIC), organism D” value in assay [4] is reported as “+++ (MIC ≦ 4 μg/mL)”. In addition, the “Minimum Inhibitory Concentration (MIC), organism E” value in [5] is “+++ (MIC ≦ 4 μg/mL)”; in assay [10] it was “+++ (MIC ≦ 4 pg/mL)”. In addition, in [6], the “Minimum Inhibitory Concentration (MIC), organism F” value is “+++ (MIC ≦ 4 μg/mL)”. Besides, the “Minimum Inhibitory Concentration (MIC), organism G” value in [7] is “+++ (MIC ≦ 4 μg/mL)”.
For `Cn1cc(NC(=O)c2cc(NC(=O)c3sccc3Cl)cn2CCCN2CCC(F)(F)CC2)cc1-c1nc2ccccc2[nH]1` [Compound A-54], the “Minimum Inhibitory Concentration (MIC), organism A” value in assay [1] was “+++ (MIC ≦ 4 μg/mL)”; in [8], “+++ (MIC ≦ 4 pg/mL)”. In addition, the “Minimum Inhibitory Concentration (MIC), organism B” value is greater than 32 µg/mL in assay [2] and “+++ (MIC ≦ 4 pg/mL)” in assay [9]. Moreover, the “Minimum Inhibitory Concentration (MIC), organism C” value in assay [3] was “+++ (MIC ≦ 4 μg/mL)”. Besides, the “Minimum Inhibitory Concentration (MIC), organism D” value in [4] is “+++ (MIC ≦ 4 μg/mL)”. The “Minimum Inhibitory Concentration (MIC), organism E” value was “+++ (MIC ≦ 4 μg/mL)” in [5] and “+++ (MIC ≦ 4 pg/mL)” in [10]. For the same compound, the “Minimum Inhibitory Concentration (MIC), organism F” value in assay [6] is “+++ (MIC ≦ 4 μg/mL)”. For the same compound, the “Minimum Inhibitory Concentration (MIC), organism G” value in assay [7] was “+++ (MIC ≦ 4 μg/mL)”.
`CN(C)CCCn1cc(NC(=O)c2ccc(F)cc2F)cc1C(=O)Nc1cc(-c2nc3ccccc3[nH]2)n(C)c1` [Compound A-16]: the “Minimum Inhibitory Concentration (MIC), organism A” value in assay [1] was “+++ (MIC ≦ 4 μg/mL)”; in assay [8], “+++ (MIC ≦ 4 pg/mL)”. Besides, the results for the “Minimum Inhibitory Concentration (MIC), organism B” value in assay [2] and in [9] were “+ (12 ≦ MIC ≦ 32 μg/mL)” and “+++ (MIC ≦ 4 pg/mL)”, respectively. For the same compound, in assay [3], the “Minimum Inhibitory Concentration (MIC), organism C” value is given as “+++ (MIC ≦ 4 μg/mL)”. The “Minimum Inhibitory Concentration (MIC), organism D” value in [4] is “+++ (MIC ≦ 4 μg/mL)”. Moreover, the “Minimum Inhibitory Concentration (MIC), organism E” value in assay [5] is recorded as “+++ (MIC ≦ 4 μg/mL)”; in [10] it was “+++ (MIC ≦ 4 pg/mL)”. The “Minimum Inhibitory Concentration (MIC), organism F” value in assay [6] is “+++ (MIC ≦ 4 μg/mL)”. In addition, the “Minimum Inhibitory Concentration (MIC), organism G” value in assay [7] is “+++ (MIC ≦ 4 μg/mL)”.
Regarding `CN(C)CCCn1cc(NC(=O)c2ccc(Cl)cc2F)cc1C(=O)Nc1cc(-c2nc3ccncc3[nH]2)n(C)c1` [Compound A-45], the “Minimum Inhibitory Concentration (MIC), organism A” value in assay [1] is on record as “+++ (MIC ≦ 4 μg/mL)”; in [8], “+++ (MIC ≦ 4 pg/mL)”. Further, the “Minimum Inhibitory Concentration (MIC), organism B” value in assay [2] is recorded as “++ (4 < MIC < 12 μg/mL)”; in assay [9], “+++ (MIC ≦ 4 pg/mL)”. In addition, the “Minimum Inhibitory Concentration (MIC), organism C” value in assay [3] is reported as “+++ (MIC ≦ 4 μg/mL)”. Moreover, the “Minimum Inhibitory Concentration (MIC), organism D” value in [4] was “+++ (MIC ≦ 4 μg/mL)”. For the same compound, the “Minimum Inhibitory Concentration (MIC), organism E” value in assay [5] is reported as “+++ (MIC ≦ 4 μg/mL)”; in assay [10], “+++ (MIC ≦ 4 pg/mL)”. The “Minimum Inhibitory Concentration (MIC), organism F” value in assay [6] was “+++ (MIC ≦ 4 μg/mL)”. For the same compound, the “Minimum Inhibitory Concentration (MIC), organism G” value in [7] is recorded as “+++ (MIC ≦ 4 μg/mL)”.
As to `CN(C)CCCn1cc(NC(=O)c2cc3ccccc3cn2)cc1C(=O)Nc1cc(-c2nc3ccccc3[nH]2)n(C)c1` [Compound A-1], the “Minimum Inhibitory Concentration (MIC), organism A” value in [1] was “+++ (MIC ≦ 4 μg/mL)”; in assay [8] it was “+++ (MIC ≦ 4 pg/mL)”. The “Minimum Inhibitory Concentration (MIC), organism B” value in [2] was “+++ (MIC ≦ 4 μg/mL)”; in assay [9], “+++ (MIC ≦ 4 pg/mL)”. In assay [3], the “Minimum Inhibitory Concentration (MIC), organism C” value is given as “+++ (MIC ≦ 4 μg/mL)”. The “Minimum Inhibitory Concentration (MIC), organism D” value in assay [4] is “+++ (MIC ≦ 4 μg/mL)”. Also, the “Minimum Inhibitory Concentration (MIC), organism E” value in assay [5] is given as “+++ (MIC ≦ 4 μg/mL)”; in assay [10] it was “+++ (MIC ≦ 4 pg/mL)”. Further, the “Minimum Inhibitory Concentration (MIC), organism F” value in assay [6] was “+++ (MIC ≦ 4 μg/mL)”. The “Minimum Inhibitory Concentration (MIC), organism G” value in [7] is “+++ (MIC ≦ 4 μg/mL)”.
In the case of `CN(C)CCCn1cc(NC(=O)c2ccc(Cl)cc2F)cc1C(=O)Nc1cc(-c2nc3cccnc3[nH]2)n(C)c1` [Compound A-39], the “Minimum Inhibitory Concentration (MIC), organism A” value in assay [1] was “+++ (MIC ≦ 4 μg/mL)”. The “Minimum Inhibitory Concentration (MIC), organism B” value in assay [2] is on record as “+ (12 ≦ MIC ≦ 32 μg/mL)”. Also, in assay [3], the “Minimum Inhibitory Concentration (MIC), organism C” value is given as “+++ (MIC ≦ 4 μg/mL)”. In addition, the “Minimum Inhibitory Concentration (MIC), organism D” value in assay [4] is recorded as “+++ (MIC ≦ 4 μg/mL)”. In assay [5], the “Minimum Inhibitory Concentration (MIC), organism E” value is on record as “+++ (MIC ≦ 4 μg/mL)”. The “Minimum Inhibitory Concentration (MIC), organism F” value in [6] is given as “+++ (MIC ≦ 4 μg/mL)”. Besides, the “Minimum Inhibitory Concentration (MIC), organism G” value in assay [7] is recorded as “+++ (MIC ≦ 4 μg/mL)”.
For the compound `CN(C)CCCn1cc(NC(=O)c2cc3ccccc3cn2)cc1C(=O)Nc1cc(-c2nc3ncccc3[nH]2)n(C)c1` [Compound A-12], the “Minimum Inhibitory Concentration (MIC), organism A” value in assay [1] was “+++ (MIC ≦ 4 μg/mL)”. Also, in assay [2], the “Minimum Inhibitory Concentration (MIC), organism B” value is greater than 32 µg/mL. Moreover, the “Minimum Inhibitory Concentration (MIC), organism C” value in assay [3] is “+++ (MIC ≦ 4 μg/mL)”. Besides, in assay [4], the “Minimum Inhibitory Concentration (MIC), organism D” value was “+++ (MIC ≦ 4 μg/mL)”. For the same compound, the “Minimum Inhibitory Concentration (MIC), organism E” value in assay [5] is reported as “+++ (MIC ≦ 4 μg/mL)”. Further, the “Minimum Inhibitory Concentration (MIC), organism F” value in [6] was “+++ (MIC ≦ 4 μg/mL)”. For the same compound, the “Minimum Inhibitory Concentration (MIC), organism G” value in assay [7] is “+++ (MIC ≦ 4 μg/mL)”.
With `Cn1cc(NC(=O)c2cc(NC(=O)c3sccc3Cl)cn2CCCN2CCC(O)CC2)cc1-c1nc2ccccc2[nH]1` [Compound A-53], the “Minimum Inhibitory Concentration (MIC), organism A” value in [1] is recorded as “+++ (MIC ≦ 4 μg/mL)”. Also, in assay [2], the “Minimum Inhibitory Concentration (MIC), organism B” value was “+ (12 ≦ MIC ≦ 32 μg/mL)”. Further, in [3], the “Minimum Inhibitory Concentration (MIC), organism C” value is “++ (4 < MIC < 12 μg/mL)”. In assay [4], the “Minimum Inhibitory Concentration (MIC), organism D” value is listed as “+++ (MIC ≦ 4 μg/mL)”. The “Minimum Inhibitory Concentration (MIC), organism E” value in [5] is “+++ (MIC ≦ 4 μg/mL)”. In addition, the “Minimum Inhibitory Concentration (MIC), organism F” value in assay [6] was “+++ (MIC ≦ 4 μg/mL)”. The “Minimum Inhibitory Concentration (MIC), organism G” value in assay [7] is reported as “+++ (MIC ≦ 4 μg/mL)”.
On to `Cn1cc(NC(=O)c2cc(NC(=O)c3ccc(Cl)cc3F)cn2CCCN2CCSCC2)cc1-c1nc2ccccc2[nH]1` [Compound A-33], for which the “Minimum Inhibitory Concentration (MIC), organism A” value in [1] is reported as “+++ (MIC ≦ 4 μg/mL)”. In assay [2], the “Minimum Inhibitory Concentration (MIC), organism B” value is greater than 32 µg/mL. Also, in [3], the “Minimum Inhibitory Concentration (MIC), organism C” value is listed as “+++ (MIC ≦ 4 μg/mL)”. In [4], the “Minimum Inhibitory Concentration (MIC), organism D” value is reported as “+++ (MIC ≦ 4 μg/mL)”. In assay [5], the “Minimum Inhibitory Concentration (MIC), organism E” value is “+++ (MIC ≦ 4 μg/mL)”. Besides, the “Minimum Inhibitory Concentration (MIC), organism F” value in [6] is on record as “+++ (MIC ≦ 4 μg/mL)”. Also, the “Minimum Inhibitory Concentration (MIC), organism G” value in assay [7] is “+++ (MIC ≦ 4 μg/mL)”.
